The structures appear in SMILES notation. “And” between values parts separate entries of the source, which are not always exact repeats. Equal values may be shown once. The source made the active and inactive calls. The rule behind the calls is not given here.

By TD50 is commonly meant the dose at which the toxic effect under study appears in half of the subjects.

The data set has as its system rodent lifetime carcinogenesis bioassay, tumor incidence TD50. In words: carcinogenic potency in animals, long-term in vivo studies, CPDB compilation (AID 1745844).

As to `O=C1OC(c2ccc(O)cc2)(c2ccc(O)cc2)c2ccccc21`, the TD50 (mouse, strain B6C3F1, females, in feed, site: all sites + ovary, lesion: histiocytic sarcoma + lymphoma malignant, thymic origin + malignant lymphoma + sex-cord stromal tumor, benign, bilateral + sex-c, dosed 105 weeks, study length 105 weeks) turned out to be 508 mg/kg/day; the TD50 (mouse, strain B6C3F1, females, in feed, site: all sites, lesion: histiocytic sarcoma, dosed 105 weeks, study length 105 weeks) is 4080 mg/kg/day; the TD50 (mouse, strain B6C3F1, females, in feed, site: all sites, lesion: lymphoma malignant, thymic origin, dosed 105 weeks, study length 105 weeks) is 1610 mg/kg/day; the TD50 (mouse, strain B6C3F1, females, in feed, site: all sites, lesion: malignant lymphoma, dosed 105 weeks, study length 105 weeks) is 748 mg/kg/day; the TD50 (mouse, strain B6C3F1, females, in feed, site: any site (literature study), lesion: several types, types named in the paper, dosed 105 weeks, study length 105 weeks) is 1740 mg/kg/day; the TD50 (mouse, strain B6C3F1, females, in feed, site: lung, lesion: alveolar/bronchiolar adenoma + alveolar/bronchiolar carcinoma, dosed 105 weeks, study length 105 weeks) came to 9190 mg/kg/day. The TD50 is, setting by setting: (mouse, strain B6C3F1, females, in feed, site: ovary, lesion: sex-cord stromal tumor, benign, bilateral + sex-cord stromal tumor, benign, dosed 105 weeks, study length 105 weeks) 1900 mg/kg/day; (mouse, strain B6C3F1, males, in feed, site: all sites, lesion: histiocytic sarcoma + lymphoma malignant, thymic origin, dosed 104 weeks, study length 104 weeks) 1150 mg/kg/day; (mouse, strain B6C3F1, males, in feed, site: all sites, lesion: histiocytic sarcoma, dosed 104 weeks, study length 104 weeks) 2680 mg/kg/day; (mouse, strain B6C3F1, males, in feed, site: all sites, lesion: lymphoma malignant, thymic origin, dosed 104 weeks, study length 104 weeks) 2740 mg/kg/day; (mouse, strain B6C3F1, males, in feed, site: any site (literature study), lesion: several types, types named in the paper, dosed 104 weeks, study length 104 weeks) 32200 mg/kg/day; (mouse, strain B6C3F1, males, in feed, site: lung, lesion: alveolar/bronchiolar adenoma + alveolar/bronchiolar carcinoma, dosed 104 weeks, study length 104 weeks) 8060 mg/kg/day. Moreover, the TD50 was 1640 mg/kg/day (mouse, strain B6C3F1, males, in feed, site: spleen, lesion: hemangiosarcoma, dosed 104 weeks, study length 104 weeks); 20800 mg/kg/day (inactive) (mouse, strain BALB/c, males, in feed, site: liver, lesion: hepatoma, dosed 60 weeks, study length 104 weeks); 4160 mg/kg/day (rat, strain Fischer 344, females, in feed, site: adrenal medulla, lesion: pheochromocytoma benign, bilateral + pheochromocytoma, benign, dosed 105 weeks, study length 105 weeks); 3530 mg/kg/day (rat, strain Fischer 344, females, in feed, site: adrenal medulla, lesion: pheochromocytoma benign, bilateral + pheochromocytoma, malignant + pheochromocytoma, benign, dosed 105 weeks, study length 105 weeks); 250 mg/kg/day (rat, strain Fischer 344, males, in feed, site: adrenal medulla + kidney, lesion: pheochromocytoma benign, bilateral + pheochromocytoma, benign + tubule adenoma + tubule carcinoma, dosed 104 weeks, study length 104 weeks); 517 mg/kg/day (rat, strain Fischer 344, males, in feed, site: adrenal medulla, lesion: pheochromocytoma benign, bilateral + pheochromocytoma, benign, dosed 104 weeks, study length 104 weeks). Besides, the TD50 was 533 mg/kg/day (rat, strain Fischer 344, males, in feed, site: adrenal medulla, lesion: pheochromocytoma benign, bilateral + pheochromocytoma, malignant + pheochromocytoma malignant, bilateral + pheochromocytoma, b, dosed 104 weeks, study length 104 weeks); 3540 mg/kg/day (rat, strain Fischer 344, males, in feed, site: any site (literature study), lesion: several types, types named in the paper, dosed 104 weeks, study length 104 weeks); 3220 mg/kg/day and 975 mg/kg/day (rat, strain Fischer 344, males, in feed, site: kidney, lesion: tubule adenoma + tubule carcinoma, dosed 104 weeks, study length 104 weeks); 4050 mg/kg/day and 1040 mg/kg/day (rat, strain Fischer 344, males, in feed, site: kidney, lesion: tubule adenoma, dosed 104 weeks, study length 104 weeks); 118000 mg/kg/day (rat, strain Fischer 344, males, in feed, site: liver, lesion: hepatocellular adenoma + hepatoblastoma + hepatocellular carcinoma, dosed 104 weeks, study length 104 weeks); 6990 mg/kg/day (rat, strain Fischer 344, males, in feed, site: thyroid gland, lesion: follicular-cell adenoma, bilateral + follicular-cell adenoma, dosed 104 weeks, study length 104 weeks). Also, the carcinogen call runs as follows: (mouse, strain BALB/c, males, in feed, site: lung, lesion: one or several types, types not named, dosed 60 weeks, study length 104 weeks) “negative (inactive)”; (mouse, strain C57BL/6J, males, by gavage, site: liver, lesion: hepatoma, dosed 69 weeks, study length 104 weeks) “negative (inactive)”; (mouse, strain C57BL/6J, males, by gavage, site: lung, lesion: one or several types, types not named, dosed 69 weeks, study length 104 weeks) “negative (inactive)”.
`O=NN1CCCCC1C(=O)O` (stereo unspecified): the TD50 reads like this: (rat, strain MRC, females, in drinking water, site: any site (literature study), lesion: several types, types named in the paper, dosed 75 weeks, study length 104 weeks) 4.99 mg/kg/day (inactive); (rat, strain MRC, males, in drinking water, site: any site (literature study), lesion: several types, types named in the paper, dosed 75 weeks, study length 104 weeks) 3.82 mg/kg/day (inactive).
For `O=C(O)c1ccc(O)c(O)c1`, the carcinogen call runs as follows: (hamster, strain Syrian Golden, females, in feed, site: liver, lesion: one or several types, types not named, dosed 49 weeks, study length 52 weeks) “negative (inactive)”; (hamster, strain Syrian Golden, females, in feed, site: lung, lesion: one or several types, types not named, dosed 49 weeks, study length 52 weeks) “negative (inactive)”.
As for `Nc1ccc(N)c2c1C(=O)c1c(N)ccc(N)c1C2=O`, the TD50 runs as follows: (mouse, strain B6C3F1, females, in feed, site: liver, lesion: hepatocellular adenoma, dosed 103 weeks, study length 106 weeks) 150 mg/kg/day (inactive); (mouse, strain B6C3F1, females, in feed, site: lung, lesion: alveolar/bronchiolar adenoma + alveolar/bronchiolar carcinoma, dosed 103 weeks, study length 106 weeks) 9310 mg/kg/day; (mouse, strain B6C3F1, males, in feed, site: any site (literature study), lesion: several types, types named in the paper, dosed 104 weeks, study length 105 weeks) 1290 mg/kg/day; (mouse, strain B6C3F1, males, in feed, site: liver, lesion: hepatocellular adenoma + hepatocellular carcinoma + neoplastic nodule, dosed 104 weeks, study length 105 weeks) 534 mg/kg/day; (mouse, strain B6C3F1, males, in feed, site: liver, lesion: hepatocellular adenoma + hepatocellular carcinoma, dosed 104 weeks, study length 105 weeks) 534 mg/kg/day; (mouse, strain B6C3F1, males, in feed, site: lung, lesion: alveolar/bronchiolar adenoma + alveolar/bronchiolar carcinoma, dosed 104 weeks, study length 105 weeks) 701 mg/kg/day. In addition, the TD50 is 925 mg/kg/day (mouse, strain B6C3F1, males, in feed, site: lung, lesion: alveolar/bronchiolar adenoma, dosed 104 weeks, study length 105 weeks); 130 mg/kg/day (rat, strain Fischer 344, females, in feed, site: any site (literature study), lesion: several types, types named in the paper, dosed 103 weeks, study length 104 weeks); 291 mg/kg/day (rat, strain Fischer 344, females, in feed, site: pancreatic islets, lesion: islet-cell carcinoma, dosed 103 weeks, study length 104 weeks); 323 mg/kg/day (rat, strain Fischer 344, females, in feed, site: pituitary gland + pancreatic islets, lesion: carcinoma, NOS + islet-cell carcinoma, dosed 103 weeks, study length 104 weeks); 1540 mg/kg/day (rat, strain Fischer 344, females, in feed, site: urinary bladder, lesion: leiomyoma, dosed 103 weeks, study length 104 weeks); 131 mg/kg/day (rat, strain Fischer 344, females, in feed, site: urinary bladder, lesion: leiomyosarcoma + leiomyoma + squamous-cell carcinoma + squamous-cell papilloma + transitional-cell carcinoma + transitional-cell p, dosed 103 weeks, study length 104 weeks). The TD50 by setting is: (rat, strain Fischer 344, females, in feed, site: urinary bladder, lesion: leiomyosarcoma + leiomyoma, dosed 103 weeks, study length 104 weeks) 250 mg/kg/day; (rat, strain Fischer 344, females, in feed, site: urinary bladder, lesion: leiomyosarcoma, dosed 103 weeks, study length 104 weeks) 294 mg/kg/day; (rat, strain Fischer 344, females, in feed, site: urinary bladder, lesion: squamous-cell carcinoma + squamous-cell papilloma, dosed 103 weeks, study length 104 weeks) 664 mg/kg/day; (rat, strain Fischer 344, females, in feed, site: urinary bladder, lesion: squamous-cell carcinoma, dosed 103 weeks, study length 104 weeks) 1580 mg/kg/day; (rat, strain Fischer 344, females, in feed, site: urinary bladder, lesion: squamous-cell papilloma, dosed 103 weeks, study length 104 weeks) 1020 mg/kg/day; (rat, strain Fischer 344, females, in feed, site: urinary bladder, lesion: transitional-cell carcinoma + transitional-cell papilloma, dosed 103 weeks, study length 104 weeks) 198 mg/kg/day. Moreover, the TD50 reads like this: (rat, strain Fischer 344, females, in feed, site: urinary bladder, lesion: transitional-cell carcinoma, dosed 103 weeks, study length 104 weeks) 307 mg/kg/day; (rat, strain Fischer 344, females, in feed, site: urinary bladder, lesion: transitional-cell papilloma, dosed 103 weeks, study length 104 weeks) 317 mg/kg/day; (rat, strain Fischer 344, males, in feed, site: any site (literature study), lesion: several types, types named in the paper, dosed 103 weeks, study length 104 weeks) 39.3 mg/kg/day; (rat, strain Fischer 344, males, in feed, site: pancreatic islets, lesion: islet-cell adenoma + islet-cell carcinoma, dosed 103 weeks, study length 104 weeks) 414 mg/kg/day; (rat, strain Fischer 344, males, in feed, site: pancreatic islets, lesion: islet-cell adenoma, dosed 103 weeks, study length 104 weeks) 810 mg/kg/day; (rat, strain Fischer 344, males, in feed, site: subcutaneous tissue, lesion: sarcoma, NOS, dosed 103 weeks, study length 104 weeks) 1830 mg/kg/day. The TD50 reads like this: (rat, strain Fischer 344, males, in feed, site: testis, lesion: interstitial-cell tumor, dosed 103 weeks, study length 104 weeks) 100 mg/kg/day; (rat, strain Fischer 344, males, in feed, site: thyroid gland, lesion: c-cell adenoma + c-cell carcinoma, dosed 103 weeks, study length 104 weeks) 474 mg/kg/day; (rat, strain Fischer 344, males, in feed, site: thyroid gland, lesion: c-cell adenoma, dosed 103 weeks, study length 104 weeks) 529 mg/kg/day; (rat, strain Fischer 344, males, in feed, site: urinary bladder, lesion: leiomyosarcoma + leiomyoma + squamous-cell carcinoma + squamous-cell papilloma + transitional-cell carcinoma + transitional-cell p, dosed 103 weeks, study length 104 weeks) 89.3 mg/kg/day; (rat, strain Fischer 344, males, in feed, site: urinary bladder, lesion: leiomyosarcoma + leiomyoma, dosed 103 weeks, study length 104 weeks) 129 mg/kg/day; (rat, strain Fischer 344, males, in feed, site: urinary bladder, lesion: leiomyosarcoma, dosed 103 weeks, study length 104 weeks) 131 mg/kg/day. In addition, the TD50 (rat, strain Fischer 344, males, in feed, site: urinary bladder, lesion: squamous-cell carcinoma + squamous-cell papilloma, dosed 103 weeks, study length 104 weeks) was 803 mg/kg/day; the TD50 (rat, strain Fischer 344, males, in feed, site: urinary bladder, lesion: squamous-cell papilloma, dosed 103 weeks, study length 104 weeks) is 1260 mg/kg/day; the TD50 (rat, strain Fischer 344, males, in feed, site: urinary bladder, lesion: transitional-cell carcinoma + transitional-cell papilloma, dosed 103 weeks, study length 104 weeks) was 245 mg/kg/day; the TD50 (rat, strain Fischer 344, males, in feed, site: urinary bladder, lesion: transitional-cell carcinoma, dosed 103 weeks, study length 104 weeks) was 506 mg/kg/day; the TD50 (rat, strain Fischer 344, males, in feed, site: urinary bladder, lesion: transitional-cell papilloma, dosed 103 weeks, study length 104 weeks) is 370 mg/kg/day.

The values are drawn from PubChem BioAssay AID1745844 (Carcinogenic Potency Database (CPDB), 2022).
